Values belong to the molecule of their own block, whether it stands above or below them.
Legend:
[1] = system: SKBr3 (estrogen receptor negative, HER2 over-expressing breast cancer cells); assay: Anti-proliferation assay (MTS/PMS, 72 h), SKBr3; format: cell-based; settings: Homo sapiens
Method: (§1) Cells were maintained in a 1:1 mixture of Advanced DMEM/F12 (Gibco) supplemented with non-essential amino acids, L-glutamine (2 mM), streptomycin (500 μg/mL), penicillin (100 units/mL), and 10% FBS. Cells were grown to confluence in a humidified atmosphere (37° C., 5% CO2), seeded (2000/well, 100 μL) in 96-well plates, and allowed to attach overnight. Compound at varying concentrations in DMSO (1% DMSO final concentration) was added, and cells were returned to the incubator for 72 h. At 72 h, the number of viable cells was determined using an MTS/PMS cell proliferation kit (Promega) per the manufacturer's instructions. Cells incubated in 1% DMSO were used at 100% proliferation, and values were adjusted accordingly. IC50 values were calculated from separate experiments performed in triplicate using GraphPad Prism.
(§2) Anti-proliferative studies with the compounds described herein were performed against the SKBr3 (estrogen receptor negative, HER2 over-expressing breast cancer cells) and MCF-7 (estrogen receptor positive breast cancer cells) breast cancer cell lines. […] In some embodiments, in contrast to the novobiocin derivatives, which usually manifest better anti-proliferative activities against the SKBr3 cell line, the biphenyl derivatives described herein were more efficacious against the MCF-7 cell line. In general, all substitutions on the phenyl ring were determined to be beneficial, consistent with the existence of a hydrophobic pocket in this region of the Hsp90 C-terminal binding site.

[2] = system: MCF-7 (estrogen receptor positive breast cancer cells); assay: Anti-proliferation assay (MTS/PMS, 72 h), MCF-7; format: cell-based; settings: Homo sapiens
Method: as §1, §2

[3] = SK-BR-3, Table 1, ortho, meta and para biphenyl cores
[4] = SK-BR-3, Table 2, para-meta biphenyl core with substituted benzylamide
[5] = MCF7, Table 1, ortho, meta and para biphenyl cores
[6] = MCF7, Table 2, para-meta biphenyl core with substituted benzylamide
[7] = SK-BR-3, Table 6, para-para biphenyl core with substituted benzylamide
[8] = SK-BR-3, Table 8, para-para biphenyl core with substituted biphenylamide group
[9] = MCF7, Table 6, para-para biphenyl core with substituted benzylamide
[10] = MCF7, Table 8, para-para biphenyl core with substituted biphenylamide group
[11] = SK-BR-3, Table 3, substituted para-para biphenyl core
[12] = MCF7, Table 3, substituted para-para biphenyl core
[13] = SK-BR-3, Table 4, para-para heteroatom substituted biphenyl core
[14] = MCF7, Table 4, para-para heteroatom substituted biphenyl core

SMILES: COc1ccc(C(=O)Nc2cccc(-c3ccc(OC4CCN(C)CC4)cc3)c2)cc1 [Compound 6f, 4-methoxy-N-(4′-((1-methylpiperidin-4-yl)oxy)-[1,1′-biphenyl]-3-yl)benzamide]
- IC50 [1, 3]: 10100 ± 930 nM
- IC50 [1, 4]: 10100 ± 930 nM
- IC50 [2, 5]: 5520 ± 10 nM
- IC50 [2, 6]: 5520 ± 10 nM

SMILES: CN1CCC(Oc2ccc(-c3ccc(NC(=O)c4cccc(-c5ccccc5)c4)cc3)cc2)CC1 [Compound 41r, N-(4′-((1-methylpiperidin-4-yl)oxy)-[1,1′-biphenyl]-4-yl)-[1,1′-biphenyl]-3-carboxamide]
- IC50 [1, 7]: 730 ± 70 nM
- IC50 [1, 8]: 730 ± 70 nM
- IC50 [2, 9]: 1150 ± 180 nM
- IC50 [2, 10]: 1150 ± 180 nM

SMILES: CN1CCC(Oc2ccc(-c3ccc(NC(=O)c4ccc(Cl)c(Cl)c4)cc3)cc2)CC1 [Compound 41n, 3,4-dichloro-N-(4′-((1-methylpiperidin-4-yl)oxy)-[1,1′-biphenyl]-4-yl)benzamide]
- IC50 [1, 7]: 1200 ± 80 nM
- IC50 [2, 9]: 1600 ± 160 nM

SMILES: COc1cccc(-c2cc(C(=O)Nc3ccc(-c4ccc(OC5CCN(C)CC5)c(CCC(C)C)c4)cc3)ccc2OC)c1
- IC50 ([1]; SK-BR-3, Table 10, longer alkyl chain substituted biphenyl core): 1180 ± 40 nM
- IC50 ([2]; MCF7, Table 10, longer alkyl chain substituted biphenyl core): 1430 ± 220 nM

SMILES: COc1cccc(-c2cc(C(=O)Nc3ccc(-c4ccc(OC5CCN(C)CC5)cc4)c(C)c3)ccc2OC)c1 [Compound 29c, 3′,6-dimethoxy-N-(2-methyl-4′-((1-methylpiperidin-4-yl)oxy)-[1,1′-biphenyl]-4-yl)-[1,1′-biphenyl]-3-carboxamide]
- IC50 [1, 11]: 970 ± 10 nM
- IC50 [2, 12]: 1570 ± 560 nM

SMILES: COc1cccc(-c2cc(C(=O)Nc3ccc(-c4ccc(OC5CCN(C)CC5)nc4)cc3)ccc2OC)c1 [Compound 19a, 3′,6-dimethoxy-N-(4-(6-((1-methylpiperidin-4-yl)oxy)pyridin-3-yl)phenyl)-[1,1′-biphenyl]-3-carboxamide]
- IC50 [1, 13]: 1670 ± 90 nM
- IC50 [2, 14]: 1560 ± 190 nM

SMILES: CN1CCC(Oc2ccc(-c3ccc(NC(=O)c4ccccc4)cc3)cc2)CC1 [Compound 41a, N-(4′-((1-methylpiperidin-4-yl)oxy)-[1,1′-biphenyl]-4-yl)benzamide]
- IC50 [1, 7]: 4130 ± 220 nM
- IC50 [2, 9]: 3950 ± 130 nM

SMILES: COc1cccc(-c2cc(C(=O)Nc3ccc(-c4ccc(OC5CCN(C)CC5)c(C)c4)cc3)ccc2OC)c1 [Compound 29a, 3′,6-dimethoxy-N-(3′-methyl-4′-((1-methylpiperidin-4-yl)oxy)-[1,1′-biphenyl]-4-yl)-[1,1′-biphenyl]-3-carboxamide]
- IC50 [1, 11]: 830 ± 30 nM
- IC50 [2, 12]: 1690 ± 80 nM

SMILES: COc1cccc(-c2cc(C(=O)Nc3ccc(-c4ccc(OC5CCN(C)CC5)cc4)cc3N)ccc2OC)c1 [Compound 38d, N-(3-amino-4′-((1-methylpiperidin-4-yl)oxy)-[1,1′-biphenyl]-4-yl)-3′,6-dimethoxy-[1,1′-biphenyl]-3-carboxamide]
- IC50 [1, 11]: 3210 ± 450 nM
- IC50 [2, 12]: 2250 ± 490 nM

SMILES: CN1CCC(Oc2ccc(-c3cccc(NC(=O)c4ccccc4Cl)c3)cc2)CC1 [Compound 6k, 2-Chloro-N-(4′-((1-methylpiperidin-4-yl)oxy)-[1,1′-biphenyl]-3-yl)benzamide]
- IC50 [1, 4]: 7870 ± 480 nM
- IC50 [2, 6]: 5170 ± 490 nM

SMILES: COc1cccc(-c2cc(C(=O)Nc3ccc(-c4ccc(OC5CCN(C)CC5)cc4Cl)cc3)ccc2OC)c1 [Compound 29j, N-(2′-chloro-4′-((1-methylpiperidin-4-yl)oxy)-[1,1′-biphenyl]-4-yl)-3′,6-dimethoxy-[1,1′-biphenyl]-3-carboxamide]
- IC50 [1, 11]: 3680 nM
- IC50 [2, 12]: 3120 nM

SMILES: Cc1ccc(C(=O)Nc2ccc(-c3ccc(OC4CCN(C)CC4)cc3)cc2)cc1 [Compound 41e, 4-methyl-N-(4′-((1-methylpiperidin-4-yl)oxy)-[1,1′-biphenyl]-4-yl)benzamide]
- IC50 [1, 7]: 980 ± 190 nM
- IC50 [2, 9]: 1270 ± 130 nM

SMILES: COc1cccc(-c2cc(C(=O)Nc3ccc(-c4ccc(OC5CCN(C)CC5)cc4)cc3OC)ccc2OC)c1 [Compound 29h, 3′,6-dimethoxy-N-(3-methoxy-4′-((1-methylpiperidin-4-yl)oxy)-[1,1′-biphenyl]-4-yl)-[1,1′-biphenyl]-3-carboxamide]
- IC50 [1, 11]: 3920 ± 210 nM
- IC50 [2, 12]: 1220 ± 40 nM

SMILES: CN1CCC(Oc2ccc(-c3ccc(NC(=O)c4ccc(-c5ccccc5)cc4)cc3)cc2)CC1 [Compound 41s, N-(4′-((1-methylpiperidin-4-yl)oxy)-[1,1′-biphenyl]-4-yl)-[1,1′-biphenyl]-4-carboxamide]
- IC50 [1, 7]: 4590 ± 60 nM
- IC50 [2, 9]: 4440 ± 600 nM

SMILES: Cc1ccc(C(=O)Nc2ccc(-c3ccc(OC4CCN(C)CC4)cc3)cc2)cc1Br [Compound 41l, 3-bromo-4-methyl-N-(4′-((1-methylpiperidin-4-yl)oxy)-[1,1′-biphenyl]-4-yl)benzamide]
- IC50 [1, 7]: 2800 ± 180 nM
- IC50 [2, 9]: 3350 ± 360 nM

SMILES: COc1cccc(-c2cc(C(=O)Nc3ccc(-c4ccc(OC5CCN(C)CC5)cc4)nc3)ccc2OC)c1 [Compound 19c, 3′,6-dimethoxy-N-(6-(4-((1-methylpiperidin-4-yl)oxy)phenyl)pyridin-3-yl)-[1,1′-biphenyl]-3-carboxamide]
- IC50 [1, 13]: 1210 ± 130 nM
- IC50 [2, 14]: 1020 ± 10 nM

SMILES: COc1cccc(-c2cc(C(=O)Nc3ccc(-c4ccc(OC5CCN(C)CC5)cc4)c(N)c3)ccc2OC)c1 [Compound 38c, N-(2-amino-4′-((1-methylpiperidin-4-yl)oxy)-[1,1′-biphenyl]-4-yl)-3′,6-dimethoxy-[1,1′-biphenyl]-3-carboxamide]
- IC50 [1, 11]: 3900 ± 180 nM
- IC50 [2, 12]: 2070 ± 230 nM

More lines, now with the values ahead:

- IC50 [1, 8]: 1060 ± 50 nM
- IC50 [2, 10]: 820 ± 130 nM
SMILES: COc1ccc(C(=O)Nc2ccc(-c3ccc(OC4CCN(C)CC4)cc3)cc2)cc1-c1ccc(Cl)cc1 [Compound 49g, 4′-chloro-6-methoxy-N-(4′-((1-methylpiperidin-4-yl)oxy)-[1,1′-biphenyl]-4-yl)-[1,1′-biphenyl]-3-carboxamide]

- IC50 [1, 8]: 400 ± 70 nM
- IC50 [2, 10]: 1090 ± 280 nM
SMILES: COc1ccc(C(=O)Nc2ccc(-c3ccc(OC4CCN(C)CC4)cc3)cc2)cc1-c1cccc([N+](=O)[O-])c1 [Compound 49h, 6-methoxy-N-(4′-((1-methylpiperidin-4-yl)oxy)-[1,1′-biphenyl]-4-yl)-3′-nitro-[1,1′-biphenyl]-3-carboxamide]

- IC50 [1, 8]: 1560 ± 350 nM
- IC50 [2, 10]: 1080 ± 340 nM
SMILES: COc1ccc(C(=O)Nc2ccc(-c3ccc(OC4CCN(C)CC4)cc3)cc2)cc1-c1cccc(O)c1 [Compound 50a, 3′-hydroxy-6-methoxy-N-(4′-((1-methylpiperidin-4-yl)oxy)-[1,1′-biphenyl]-4-yl)-[1,1′-biphenyl]-3-carboxamide]

- IC50 [1, 3]: 1760 ± 160 nM
- IC50 [2, 5]: 1700 ± 210 nM
SMILES: CC(=O)Oc1ccc(C(=O)Nc2cccc(-c3cccc(OC4CCN(C)CC4)c3)c2)cc1CC=C(C)C [Compound 61f, 2-(3-methylbut-2-en-1-yl)-4-((3′-((1-methylpiperidin-4-yl)oxy)-[1,1′-biphenyl]-3-yl)carbamoyl)phenyl acetate]

- IC50 [1, 8]: 3160 ± 370 nM
- IC50 [2, 10]: 1600 ± 110 nM
SMILES: Cc1ccc(C(=O)Nc2ccc(-c3ccc(OC4CCN(C)CC4)cc3)cc2)cc1-c1cccc(Cl)c1 [Compound 49k]

- IC50 [1, 3]: 1820 ± 210 nM
- IC50 [2, 5]: 1370 ± 180 nM
SMILES: CC(=O)Oc1ccc(C(=O)Nc2ccc(-c3ccc(OC4CCN(C)CC4)cc3)cc2)cc1CC=C(C)C [Compound 61j, 2-(3-methylbut-2-en-1-yl)-4-((4′-((1-methylpiperidin-4-yl)oxy)-[1,1′-biphenyl]-4-yl)carbamoyl)phenyl acetate]

- IC50 [1, 3]: 3360 ± 200 nM
- IC50 [2, 5]: 1930 ± 330 nM
SMILES: CN1CCC(Oc2cccc(-c3cccc(NC(=O)c4ccc(C(C)(C)C)cc4)c3)c2)CC1 [Compound 61i, 4-(tert-butyl)-N-(3′-((1-methylpiperidin-4-yl)oxy)-[1,1′-biphenyl]-3-yl)benzamide]
